Measured values from US9789096B2, “Methods and compositions for selective and targeted cancer therapy” (Board of Regents of the University of Texas System, priority 2013, dated 2017).
pIC50: −log10 of the molar value. Like-named read-outs stand apart in the source and are kept apart here.

Columns and labels:
Assay type in all cases: cell-based, human
[1] = tested on: H2122; assay: Cell viability dose-response, H2122; conditions: Homo sapiens; for AC50: NCI-H2122, Table 8, 12-point dose-response starting at 50 micromolar; for IC50: NCI-H2122, Tables 3 and 4, read-out: IC50 (uM) vs indicated non-small cell lung cancer cell line H2122
In short: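 Cells plated at 15% confluence in RPMI-1640 with 5% FBS and 2 mM L-glutamine, treated with compound in a 12-point, 3-fold dilution series from 50 micromolar, in duplicate. ATP measured by Cell Titer Glo after 4 days; IC50 taken from the dose-response curve.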

[2] = tested on: HCC44; assay: Cell viability dose-response, HCC44; conditions: Homo sapiens; for pIC50: HCC44, 12-point dose-response starting at 50 micromolar, 3-fold increments, in duplicate, read-out: toxicity data, HCC44; for AC50: HCC44, Table 8, 12-point dose-response starting at 50 micromolar; for IC50: HCC44, Tables 3 and 4, read-out: IC50 (uM) vs indicated non-small cell lung cancer cell line HCC44
Protocol: (§1) FIG. 6A. […] Cell viability is plotted vs. compound concentration. Compound was added to cells plated at 15% confluence in 96-well plates in RPMI-1640 media supplemented with 5% Fetal Bovine Serum and 2 mM L-Glutamine. After 4 days of incubation, ATP levels were measured using Cell Titer Glo (Promega). Data are presented as the average of 2 replicates ±SEM.
(§2) Selectivity may be measured by the half maximal inhibitory concentration (IC50), which, as used herein, is a measure of the effectiveness of a compound in killing cells. This quantitative measure indicates how much of a particular compound is needed to kill a particular cell population by half (e.g., as indicated by the amount of ATP). […] The IC50 can be determined by constructing a dose-response curve. The lower the IC50, the higher the potency, and the greater the difference between IC50 values for different cell lines (e.g., sensitive lines vs. insensitive lines, and sensitive lines vs. normal lines) the greater the selectivity. […]
(§3) With this information, we synthesized and tested a series of small molecules derived in conception from the oxalamide and chromone scaffold including N-acyl ureas, as shown in Tables 6-8. Each compound was tested in a 12-point dose-response study starting at 50 micromolar and decreasing in 3-fold increments to sub-nanomolar concentrations, in duplicate. Additionally, one or more additional cell line was tested in the same way.

[3] = tested on: H2009; assay: Cell viability dose-response, H2009; conditions: Homo sapiens; for pIC50 / IC50: NCI-H2009; for pIC50 / AC50: 12-point dose-response starting at 50 micromolar; for pIC50: 3-fold increments, in duplicate, read-out: toxicity data, H2009; for AC50: NCI-H2009, Table 8; for IC50: Tables 3 and 4, read-out: IC50 (uM) vs indicated non-small cell lung cancer cell line H2009
Protocol: as §1, §2, §3

[4] = NCI-H2122, 12-point dose-response starting at 50 micromolar, 3-fold increments, in duplicate, read-out: toxicity data, H2122
[5] = NCI-H2122, Table 9, competitor, read-out: IC50 to H2122 cells

COc1ccc(CCNC(=O)NC(=O)c2ccc(C(O)c3ccccc3)cc2)cc1 (stereo not drawn) [SW208460-1-A]
pIC50 [1, 4]: 7.01 | pIC50 [1, 5]: 7.34 | pIC50 [2]: 7.08 | pIC50 [3]: ≤ 4.31

O=c1c(Cc2ccccc2)coc2cc(OCc3cnn(-c4ccccc4)c3)ccc12 [SW208769-1]
AC50 [1]: 0.027 µM | AC50 [2]: 3.18 µM | AC50 [3]: 49.5 µM

COc1ccc(Oc2coc3cc(OCc4cnn(-c5ccccc5)c4)ccc3c2=O)cc1 [SW 208596-1]
AC50 [1]: 0.22 µM | AC50 [2]: 16.5 µM | AC50 [3]: 16.5 µM

COc1ccc(CCNC(=O)NC(=O)c2cccc(C)c2)cc1 [SW208399-1-A]
pIC50 [1, 4]: ≤ 4.31 | pIC50 [2]: ≤ 4.31 | pIC50 [3]: 4.78

O=c1c(C#Cc2ccccc2)coc2cc(OCc3cnn(-c4ccccc4)c3)ccc12 [SW208768-1]
AC50 [1]: 24.8 µM | AC50 [2]: 16.5 µM | AC50 [3]: 19.9 µM

O=c1c(C(O)c2ccccc2)coc2cc(OCc3cnn(-c4ccccc4)c3)ccc12 (stereo not drawn) [SW208833-1]
AC50 [1]: 0.216 µM | AC50 [2]: 9.86 µM | AC50 [3]: 8.3 µM

O=C(Nc1nc2ccc(OCCCBr)cc2s1)c1ccc(C(=O)c2ccccc2)cc1 [SW 208235]
IC50 [1]: ≥ 49.5 µM | IC50 [2]: 49.5 µM | IC50 [3]: 49.5 µM

Cn1ccc(=O)c2ccc(OCc3cnn(-c4ccccc4)c3)cc21 [SW208832-1]
AC50 [1]: 7.56 µM | AC50 [2]: 49.5 µM | AC50 [3]: 7.51 µM

COc1ccc(CCNC(=O)NC(=O)c2ccc(-c3cc4ccccc4c4ccccc34)cc2)cc1 [SW208391-1-A]
pIC50 [1, 4]: ≤ 4.31 | pIC50 [2]: ≤ 4.31 | pIC50 [3]: 5.15

Cc1ccccc1C(=O)c1ccc(C(=O)NC(=O)NCCc2ccc(O)cc2)cc1 [SW208581-1-A]
pIC50 [1, 4]: 5.82 | pIC50 [2]: 6.06 | pIC50 [3]: 6.29

O=c1ccoc2cc(OCc3cnn(-c4ccccc4)c3)ccc12 [SW 208629-1]
AC50 [1]: ≥ 49.5 µM | AC50 [2]: 49.5 µM | AC50 [3]: 49.5 µM

O=C(NCCc1ccc(O)cc1)NC(=O)c1ccc(Nc2ccccc2)cc1 [SW208562-1-A]
pIC50 [1, 4]: 7.05 | pIC50 [1, 5]: 7.13 | pIC50 [2]: 4.91 | pIC50 [3]: 8.00

COc1ccc(CCNC(=O)NC(=O)c2ccc(C(=O)O)cc2)cc1 [SW208395-1-A]
pIC50 [1, 4]: ≤ 4.31 | pIC50 [2]: ≤ 4.31 | pIC50 [3]: ≤ 4.31

O=c1c(Oc2ccccc2Cl)coc2cc(OCc3cnn(-c4ccccc4)c3)ccc12 [SW 208589-1]
AC50 [1]: 0.12 µM | AC50 [2]: 49.5 µM | AC50 [3]: 4.76 µM

COc1ccc(CCNC(=O)NC(=O)c2cccc(-c3ccncc3)c2)cc1 [SW208396-1-A]
pIC50 [1, 4]: 5.65 | pIC50 [2]: ≤ 4.31 | pIC50 [3]: 5.31

C#CCOc1ccc(C(=O)c2ccc(NC(=O)C(=O)NCC(C)c3ccc(OC)cc3)cc2)cc1 (stereo not drawn) [SW208219-1-A]
pIC50 [1, 4]: ≤ 4.31 | pIC50 [2]: ≤ 4.31 | pIC50 [3]: ≤ 4.31

CNC(=O)c1ccc(C(=O)NC(=O)NCCc2ccc(OC)cc2)cc1 [SW208413-1-A]
pIC50 [1, 4]: ≤ 4.31 | pIC50 [2]: ≤ 4.31 | pIC50 [3]: 4.79

COc1ccc(CCNC(=O)NC(=O)c2ccc(C(Cl)c3ccccc3)cc2)cc1 (stereo not drawn) [SW208563-1-A]
pIC50 [1, 4]: 7.22 | pIC50 [2]: 7.52 | pIC50 [3]: 6.00

O=C(NCCc1ccc(O)cc1)NC(=O)c1ccc(Oc2ccccc2)cc1 [SW208523-1-A]
pIC50 [1, 4]: 7.70 | pIC50 [2]: 7.70 | pIC50 [3]: 7.70

COc1ccc(CCC(=O)Nc2ccc(C(=O)c3ccccc3)cc2)cc1 [SW208466-1-A]
pIC50 [1, 4]: ≤ 4.31 | pIC50 [2]: ≤ 4.31 | pIC50 [3]: ≤ 4.31

COc1cccc(C(=O)c2ccc(C(=O)NC(=O)NCCc3ccc(O)cc3)cc2)c1 [SW208579-1-A]
pIC50 [1, 4]: 6.09 | pIC50 [2]: 6.34 | pIC50 [3]: 6.38

O=c1c(-c2ccc(F)c(F)c2)coc2cc(OCc3cnn(-c4ccccc4)c3)ccc12 [SW208762-1]
AC50 [1]: 0.18 µM | AC50 [2]: 49.5 µM | AC50 [3]: 43.2 µM

COc1ccc(CCNC(=O)NC(=O)c2ccc(C(=O)Nc3ccccc3OC)cc2)cc1 [SW208409-1-A]
pIC50 [1, 4]: 6.85 | pIC50 [2]: ≤ 4.31 | pIC50 [3]: ≤ 4.31

COc1ccc(CCNC(=O)NC(=O)c2ccc(C(=O)NC3CC3)cc2)cc1 [SW208452-1-A]
pIC50 [1, 4]: ≤ 4.31 | pIC50 [2]: ≤ 4.31 | pIC50 [3]: 4.88

C#CCOc1ccc(C(=O)c2ccc(NC(=O)C(=O)NC(C)Cc3ccc(OC)cc3)cc2)cc1 (stereo not drawn) [SW208217-1-A]
pIC50 [1, 4]: ≤ 4.31 | pIC50 [2]: ≤ 4.31 | pIC50 [3]: 4.91

COc1ccc(CCNC(=O)NC(=O)c2ccc(Cl)cc2)cc1 [SW208401-1-A]
pIC50 [1, 4]: 6.82 | pIC50 [1, 5]: 7.05 | pIC50 [2]: 6.27 | pIC50 [3]: ≤ 4.31

COc1ccc(CCCNC(=O)c2ccc(Cl)cc2)cc1 [SW208462-1-A]
pIC50 [1, 4]: ≤ 4.31 | pIC50 [2]: ≤ 4.31 | pIC50 [3]: ≤ 4.31

COc1ccc(CCNC(=O)NC(=O)c2ccc(C(=O)NCc3ccccc3)cc2)cc1 [SW208412-1-A]
pIC50 [1, 4]: 6.57 | pIC50 [1, 5]: 6.56 | pIC50 [2]: ≤ 4.31 | pIC50 [3]: 5.67

COc1ccc(CCNC(=O)NC(=O)c2ccc(OCc3ccccc3)cc2)cc1 [SW208457-1-A]
pIC50 [1, 4]: 7.51 | pIC50 [2]: 7.64 | pIC50 [3]: ≤ 4.31

O=C(Nc1nc2ccccc2[nH]1)c1ccc(C(=O)c2ccccc2)cc1 [SW208653-1]
pIC50 [1, 5]: 7.42 | IC50 [1]: 0.042 µM | IC50 [2]: 3.63 µM | IC50 [3]: 1.8 µM

Cn1c(NC(=O)c2ccc(C(=O)c3ccccc3)cc2)nc2ccccc21 [SW208770-1]
IC50 [1]: 31.4 µM | IC50 [2]: 12.7 µM | IC50 [3]: 3.06 µM

Cc1cccc(C(=O)c2ccc(C(=O)NC(=O)NCCc3ccc(O)cc3)cc2)c1 [SW208582-1-A]
pIC50 [1, 4]: 5.56 | pIC50 [1, 5]: 6.10 | pIC50 [2]: 5.82 | pIC50 [3]: 6.30

Cc1ccccc1Oc1coc2cc(OCc3cnn(-c4ccccc4)c3)ccc2c1=O [SW 208593-1]
AC50 [1]: 0.11 µM | AC50 [2]: > 15 µM | AC50 [3]: > 15 µM

COc1ccc2nc(NC(=O)c3ccc(C(=O)c4ccccc4)cc3)sc2n1 [SW208233-1]
IC50 [1]: ≥ 49.5 µM | IC50 [2]: 49.5 µM | IC50 [3]: 49.5 µM

O=C(c1ccccc1)c1coc2cc(OCc3cnn(-c4ccccc4)c3)ccc2c1=O [SW208844-1]
AC50 [1]: 0.864 µM | AC50 [2]: 23.7 µM | AC50 [3]: 30 µM

O=c1c(Oc2ccccc2)coc2cc(OCc3cnn(-c4ccccc4)c3)ccc12 [SW 208586-1]
AC50 [1]: 0.11 µM | AC50 [2]: 0.15 µM | AC50 [3]: 49.5 µM

O=C(Nc1ncc(Cc2ccccc2)s1)c1ccc(C(=O)c2ccccc2)cc1 [SW208834]
IC50 [1]: 3.55 µM | IC50 [2]: 49.5 µM | IC50 [3]: 16.5 µM

CCOc1ccc(-c2coc3cc(OCc4cnn(-c5ccccc5)c4)ccc3c2=O)cc1 [SW208765-1]
AC50 [1]: ≥ 49.5 µM | AC50 [2]: 49.5 µM | AC50 [3]: 16.5 µM

O=C(NCCc1ccc(O)cc1)NC(=O)c1ccc(OCc2ccccc2)cc1 [SW208524-1-A]
pIC50 [1, 4]: 7.70 | pIC50 [2]: 8.00 | pIC50 [3]: 8.00
